Measurements published in patent US9126945B2, “N-(3-carbamoylphenly)-1H-pyrazole-5-carboxamide derivatives and the use thereof for controlling animal pests” (BAYER INTELLECTUAL PROPERTY GMBH, priority 2011, dated 2015).

Columns and labels:
Amblyomma hebraeum = test: Amblyomma hebaraeum test (AMBYHE); format: in vivo; details: 100 ppm; after 42 days
Description: Amblyomma hebaraeum Test (AMBYHE)
(§1) Solvent: dimethyl sulphoxide
Tick nymphs (Amblyomma hebraeum) are placed into perforated plastic beakers and immersed in the desired concentration for one minute. The ticks are transferred on filter paper into a Petri dish and stored in a climate-controlled cabinet.
After 42 days, the kill in % is determined.

Ctenocephalides felis = Ctenocephalides felis oral (CTECFE); format: in vivo
Description: Ctenocephalides felis Oral (CTECFE)
Solvent: 1 part by weight of dimethyl sulphoxide
For the purpose of producing a suitable preparation of active compound, 10 mg of active compound are mixed with 0.5 ml of dimethyl sulphoxide. A portion of the concentrate is diluted with citrated cattle blood, and the desired concentration is prepared.
(§2) About 20 unfed adult fleas (Ctenocephalides felis) are placed into a chamber which is closed at the top and bottom with gauze. A metal cylinder whose bottom end is closed with parafilm is placed onto the chamber. The cylinder contains the blood/active compound preparation, which can be taken up by the fleas through the parafilm membrane. After 2 days, the kill in % is determined.
For the purpose of preparing an appropriate active compound formulation, 10 mg of active compound are mixed with 0.5 ml of dimethyl sulphoxide. A portion of the concentrate is diluted with citrated cattle blood, and the desired concentration is prepared.
as §2, with “membrane.” for “membrane. After 2 days, the kill in % is determined.”

[1] = tested on: Boophilus microplus females of the SP-resistant Parkhurst strain; test: Boophilus microplus test (DIP); format: in vivo; details: 100 ppm
Description: Boophilus microplus Test (DIP)
Test animals: adult engorged Boophilus microplus females of the SP-resistant Parkhurst strain
as §1
10 mg of active compound are dissolved in 0.5 ml of dimethyl sulphoxide. For the purpose of preparing a suitable formulation, the active compound solution is diluted with water to the concentration desired in each case.
This active compound preparation is pipetted into tubes. 8-10 ticks are transferred into a further tube with holes. The tube is immersed into the active compound formulation, and all ticks are completely wetted. After the liquid has rum off, the ticks are transferred to filter discs in plastic dishes and kept in a climatized room. The activity is assessed after 7 days by laying of fertile eggs. Eggs whose fertility is not outwardly visible are stored in glass tubes in a climate-controlled cabinet until the larvae hatch. An efficacy of 100% means that none of the ticks has laid any fertile eggs.
10 mg of active compound are dissolved in 0.5 ml of dimethyl sulphoxide. For the purpose of preparing a suitable formulation, the active compound solution is diluted with water to the concentration desired in each case (in ppm).
This active compound preparation is pipetted into tubes. 8-10 ticks are transferred into a further tube with holes. The tube is immersed into the active compound formulation, and all ticks are completely wetted. After the liquid has run out, the ticks are transferred onto filter discs in plastic dishes and stored in a climate-controlled room.
The activity is assessed after the desired time by laying of fertile eggs. Eggs whose fertility is not evident from the outside are kept in glass tubes in a climate-controlled cabinet until the larvae have hatched. An effect of 100% means that none of the ticks has laid any fertile eggs.

Liriomyza trifolii = Liriomyza trifolii spray test (LIRITR); format: in vivo; details: 168 h, 7 dat
Text: Liriomyza trifolii Spray Test (LIRITR)
(§3) If the addition of ammonium salts or/and penetrants is required, these are in each case added in a concentration of 1000 ppm to the solution of the preparation.

Tetranychus urticae [2] = test: Tetranychus urticae spray test, OP-resistant (TETRUR), bean plants, ppm; format: in vivo; details: 168 h, 7 dat
Text: Tetranychus urticae Spray Test, OP-Resistant (TETRUR)
(§4) Solvent: 7 parts by weight of dimethylformamide
(§5) Emulsifier: 2 parts by weight of alkylaryl polyglycol ether
as §3

Tetranychus urticae [3] = test: Tetranychus test, OP-resistant (TETRUR spray treatment), bean leaf discs; format: in vivo; details: application rate 500 g/ha; after 6 days
Description: Tetranychus Test, OP-Resistant (TETRUR Spray Treatment)
After a time of 6 days, the efficacy in % is determined.

Lucilia cuprina larvae = test: Lucilia cuprina test (LUCICU); format: in vivo; details: 100 ppm; after 2 days
Description: Lucilia cuprina Test (LUCICU)
as §1
Vessels containing horse meat treated with the active compound preparation of the desired concentration are populated with about 20 Lucilia cuprina larvae.
(§6) After 2 days, the kill in % is determined.

[4] = tested on: Frankliniella occidentalis; test: Frankliniella occidentalis spray test (FRANOC); format: in vivo; details: 168 h, 7 dat
Text: Frankliniella occidentalis Spray Test (FRANOC)
as §3

Musca domestica = Musca domestica test (MUSCDO); format: in vivo
Description: Musca domestica Test (MUSCDO)
as §1
Vessels containing a sponge treated with the active compound preparation of the desired concentration are populated with adult Musca domestica.
as §6
Vessels containing a sponge treated with the active compound formulation of the desired concentration are populated with adult Musca domestica.
After the desired period of time, the kill in % is determined.

Plutella xylostella = Plutella xylostella spray test (PLUTMA); format: in vivo; details: 168 h, 7 dat
Text: Plutella xylostella Spray Test (PLUTMA)
as §4, §5, §3

Phaedon cochleariae = test: Phaedon test (PHAECO spray treatment), Chinese cabbage leaf discs
[5] = log P by HPLC, EEC Directive 79/831 Annex V.A8, method a); format: physicochemical; details: reversed-phase C18 HPLC column; cell marked a): HPLC, reversed-phase C18, acetonitrile/water with formic acid, gradient 10% to 95% acetonitrile
Method in brief: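 Reversed-phase C18 HPLC (50*4.6, 1.8 micron) per EEC Directive 79/831 Annex V.A8, acetonitrile/water with formic acid, gradient 10% to 95% acetonitrile over 4.25 min then 1.25 min hold; 55° C, 2.0 ml/min, with MS detection.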

[6] = Phaedon cochleariae, in Brassica rapa, foliar, 168 h, read-out: % Activity dat

Compound: Cn1nc(C(F)(F)C(F)(F)F)c(C(F)(F)F)c1C(=O)Nc1ccc(Cl)c(C(=O)NC2(C#N)CC2)c1 [Example 10]
- kill in % (effect) (Amblyomma hebraeum): 100%
- kill in % (effect) (Ctenocephalides felis; 100 ppm, after 2 days): 100%
- inhibition at 0.8 ppm (Ctenocephalides felis; Ctenocephalides felis, po, 48 h, CTECFE, 0.8 ppm, 2 dat): 90%
- inhibition at 4 ppm (Ctenocephalides felis; Ctenocephalides felis, po, 48 h, CTECFE, 4 ppm, 2 dat): 98%
- inhibition at 20 ppm (Ctenocephalides felis; Ctenocephalides felis, po, 48 h, CTECFE, 20 ppm, 2 dat): 100%
- efficacy in % (laying of fertile eggs) ([1]; after 7 days): 100%
- inhibition at 100 ppm ([1]; Rhipicephalus microplus, 168 h, BOOPMI DIP, 7 dat): 100%
- inhibition at 500 g/ha (Liriomyza trifolii): 100%
- inhibition at 4 ppm (Tetranychus urticae [2]; 4 ppm): 100%
- inhibition at 20 ppm (Tetranychus urticae [2]; 20 ppm): 100%
- efficacy in % (Tetranychus urticae [3]): 90%
- kill in % (efficacy) (Lucilia cuprina larvae): 100%
- inhibition at 20 g/ha ([4]; 20 g/ha): 90%
- inhibition at 500 g/ha ([4]; 500 g/ha): 100%
- kill in % (efficacy) (Musca domestica; 100 ppm, after 2 days): 100%
- inhibition at 100 ppm (Musca domestica; Musca domestica, 48 h, MUSCDO, 2 dat): 100%
- inhibition at 20 ppm (Plutella xylostella): 100%
- inhibition at 20 g/ha (Phaedon cochleariae; [6]): 100%
- inhibition at 100 g/ha (Phaedon cochleariae; [6]): 100%
- efficacy in % (Phaedon cochleariae; application rate 500 g/ha, after 7 days): 100%
- chromatographic logP [5]: 3.27
